Measured values from patent publication US10875855B2 (priority 2011, dated 2020).
Like-named read-outs stand apart in the source and are kept apart here.

Experiments:
[1] = test system: influenza A virus (A/PR/8/34); assay: microbe, parasite or virus in culture; format: cell-based
[2] = test system: influenza A virus (A/PR/8/34); assay: MDCK cytopathic effect (CPE) cell protection assay, ATP detection; format: cell-based; conditions: Influenza A virus, PR/8, MDCK
[3] = Influenza A virus, PR/8, Table 1, mean all, class symbol, read-out: bDNA EC99
[4] = Influenza A virus, PR/8, Table 1, viral RNA 50% of control wells, mean all, class symbol, read-out: bDNA EC50
[5] = 72 h, Table 1, MDCK cells, A/PR/8/34, 72 hours, 50% cell protection, mean all, class symbol, read-out: MDCK IC50
[6] = Table 2, class symbol in brackets, read-out: MDCK cell IC50 (uM), class
[7] = Table 2, comparison compounds of WO2005/095400, mean value, read-out: MDCK cell IC50

SMILES | EC99 [1, 3] | EC50 [1, 4] | IC50 [2, 5] | also measured
CC1(C(CC(=O)O)Nc2nc(-c3n[nH]c4ncc(F)cc34)ncc2F)CCCC1 (racemic) [Compound 12, (+/−)-3-(5-fluoro-2-(5-fluoro-1H-pyrazolo[3,4-b]pyridin-3-yl)pyrimidin-4-ylamino)-3-(1-methylcyclopentyl)propanoic acid] | < 0.3 µM | < 300 nM | < 0.3 µM | 
CC(C)(C)C(CCO)Nc1nc(-c2c[nH]c3ncc(F)cc23)c(C#N)cc1F (racemic) [Compound 41, (+/−)-5-fluoro-2-(5-fluoro-1H-pyrrolo[2,3-b]pyridin-3-yl)-6-(1-hydroxy-4,4-dimethylpentan-3-ylamino)pyridine-3-carbonitrile] | 0.3 to 3.3 µM | < 300 nM | < 0.3 µM | 
O=C(O)CC(Nc1nc(-c2c[nH]c3ncc(F)cc23)ncc1F)C1CCC1 (racemic) [Compound 44, (+/−)-3-cyclobutyl-3-((5-fluoro-2-(5-fluoro-1H-pyrrolo[2,3-b]pyridin-3-yl)pyrimidin-4-yl)amino)propanoic acid] | 0.3 to 3.3 µM | 300 to 3300 nM | < 0.3 µM | 
CC(C)(C)C(CCO)Nc1nc(-c2c[nH]c3ncc(F)cc23)ncc1F (racemic) [Compound 45, (+/−)-3-((5-fluoro-2-(5-fluoro-1H-pyrrolo[2,3-b]pyridin-3-yl)pyrimidin-4-yl)amino)-4,4-dimethylpentan-1-ol] | > 3.3 µM | < 300 nM | 0.3 to 3.3 µM | 
CC(C)(C)C(Cc1nn[nH]n1)Nc1nc(-c2c[nH]c3ncc(F)cc23)ncc1F (racemic) [Compound 55, (+/−)-N-(3,3-dimethyl-1-(2H-tetrazol-5-yl)butan-2-yl)-5-fluoro-2-(5-fluoro-1H-pyrrolo[2,3-b]pyridin-3-yl)pyrimidin-4-amine] | 0.3 to 3.3 µM | < 300 nM | < 0.3 µM | 
CC(C)(C)C(Cc1cc(O)no1)Nc1nc(-c2c[nH]c3ncc(F)cc23)ncc1F (racemic) [Compound 62, (+/−)-5-(2-((5-fluoro-2-(5-fluoro-1H-pyrrolo[2,3-b]pyridin-3-yl)pyrimidin-4-yl)amino)-3,3-dimethylbutyl)isoxazol-3-ol] | 0.3 to 3.3 µM | 300 to 3300 nM | < 0.3 µM | 
CC(C)(C)C(Cc1nc(=O)o[nH]1)Nc1nc(-c2c[nH]c3ncc(F)cc23)ncc1F (racemic) [Compound 65, (+/−)-3-(2-((5-fluoro-2-(5-fluoro-1H-pyrrolo[2,3-b]pyridin-3-yl)pyrimidin-4-yl)amino)-3,3-dimethylbutyl)-1,2,4-oxadiazol-5(2H)-one] | 0.3 to 3.3 µM | < 300 nM | < 0.3 µM | 
O=C(O)CC(Nc1nc(-c2c[nH]c3ncc(F)cc23)ncc1F)C1(C(F)(F)F)CCCC1 (racemic) [Compound 75, (+/−)-3-(5-fluoro-2-(5-fluoro-1H-pyrrolo[2,3-b]pyridin-3-yl)pyrimidin-4-ylamino)-3-(1-(trifluoromethyl)cyclopentyl)propanoic acid] | > 3.3 µM | 300 to 3300 nM | > 3.3 µM | 
CC(C)(CF)C(CC(=O)O)Nc1nc(-c2c[nH]c3ncc(F)cc23)ncc1F (racemic) [Compound 76, (+/−)-5-Fluoro-3-((5-fluoro-2-(5-fluoro-1H-pyrrolo[2,3-b]pyridin-3-yl)pyrimidin-4-yl)amino)-4,4-dimethylpentanoic acid] | 0.3 to 3.3 µM | < 300 nM | 0.3 to 3.3 µM | EC50 ([1]; Influenza A virus, PR/8, exemplary data, bDNA, read-out: EC50): 250 nM; EC99 ([1]; exemplary data, bDNA): 1.4 µM; IC50 ([2]; exemplary data, MDCK cell protection, read-out: IC50): 0.423 µM
CCOC(=O)CC(Nc1nc(-c2c[nH]c3ncc(F)cc23)ncc1F)C1(C)CCCCC1 (racemic) [Compound 77, (+/−)-ethyl 3-(5-fluoro-2-(5-fluoro-1H-pyrrolo[2,3-b]pyridin-3-yl)pyrimidin-4-ylamino)-3-(1-methylcyclohexyl)propanoate] | > 3.3 µM | 300 to 3300 nM | > 3.3 µM | 
CC(C)(C(CC(=O)O)Nc1nc(-c2c[nH]c3ncc(F)cc23)ncc1F)C(F)(F)F (racemic) [Compound 79, (+/−)-5,5,5-Trifluoro-3-(5-fluoro-2-(5-fluoro-1H-pyrrolo[2,3-b]pyridin-3-yl)pyrimidin-4-ylamino)-4,4-dimethylpentanoic acid] | 0.3 to 3.3 µM | < 300 nM | 0.3 to 3.3 µM | 
CC1(C(CC(=O)O)Nc2nc(-c3c[nH]c4ncc(Cl)cc34)ncc2F)CCCCC1 (racemic) [Compound 83, (+/−)-3-(2-(5-Chloro-1H-pyrrolo[2,3-b]pyridin-3-yl)-5-fluoropyrimidin-4-ylamino)-3-(1-methylcyclohexyl)propanoic acid] | 0.3 to 3.3 µM | < 300 nM | 0.3 to 3.3 µM | 
CC(CF)(CF)C(CC(=O)O)Nc1nc(-c2c[nH]c3ncc(F)cc23)ncc1F (racemic) [Compound 84, (+/−)-5-Fluoro-3-((5-fluoro-2-(5-fluoro-1H-pyrrolo[2,3-b]pyridin-3-yl)pyrimidin-4-yl)amino)-4-(fluoromethyl)-4-methylpentanoic acid] | > 3.3 µM | 300 to 3300 nM | 0.3 to 3.3 µM | 
CC(C)(C)C(CC(=O)O)Nc1nc(-c2c[nH]c3ncc(F)cc23)ncc1Cl (racemic) [Compound 85, (+/−)-3-((5-chloro-2-(5-fluoro-1H-pyrrolo[2,3-b]pyridin-3-yl)pyrimidin-4-yl)amino)-4,4-dimethylpentanoic acid] | > 3.3 µM | < 300 nM | 0.3 to 3.3 µM | 
O=C(O)CC(Nc1nc(-c2c[nH]c3ncc(F)cc23)ncc1F)C12CC3CC(CC(C3)C1)C2 (racemic) [Compound 86, (+/−)-3-(1-Adamantyl)-3-[[5-fluoro-2-(5-fluoro-1H-pyrrolo[2,3-b]pyridin-3-yl)pyrimidin-4-yl]amino]propionic acid] | 0.3 to 3.3 µM | < 300 nM | < 0.3 µM | 
O=C(O)CC(Nc1nc(-c2c[nH]c3ncc(F)cc23)ncc1F)C1(C(F)(F)F)CC1 (racemic) [Compound 93, (+/−)-3-((5-Fluoro-2-(5-fluoro-1H-pyrrolo[2,3-b]pyridin-3-yl)pyrimidin-4-yl)amino)-3-(1-(trifluoromethyl)cyclopropyl)propanoic acid] | > 3.3 µM | 300 to 3300 nM | 0.3 to 3.3 µM | 
O=C(O)CC(Nc1nc(-c2c[nH]c3ncc(Cl)cc23)ncc1F)C12CC3CC(CC(C3)C1)C2 (racemic) [Compound 94, (+/−)-3-(1-Adamantyl)-3-[[2-(5-chloro-1H-pyrrolo[2,3-b]pyridin-3-yl)-5-fluoro-pyrimidin-4-yl]amino]propanoic acid] | < 0.3 µM | < 300 nM | < 0.3 µM | 
CNS(=O)(=O)C[C@@H](Nc1nc(-c2c[nH]c3ncc(F)cc23)c(C#N)cc1F)C(C)(C)C [Compound 26, (S)-2-(5-Cyano-3-fluoro-6-(5-fluoro-1H-pyrrolo[2,3-b]pyridin-3-yl)pyridin-2ylamino)-N,3,3-trimethylbutane-1-sulfonamide] | < 0.3 µM | < 300 nM |  | 
CN(C)S(=O)(=O)C[C@@H](Nc1nc(-c2c[nH]c3ncc(F)cc23)c(C#N)cc1F)C(C)(C)C [Compound 27, (S)-2-(5-Cyano-3-fluoro-6-(5-fluoro-1H-pyrrolo[2,3-b]pyridin-3-yl)pyridin-2ylamino)-N,N,3,3-tetramethylbutane-1-sulfonamide] | 0.3 to 3.3 µM | < 300 nM |  | 
CC(C)(C)[C@@H](CS(=O)(=O)NC1CC1)Nc1nc(-c2c[nH]c3ncc(F)cc23)c(C#N)cc1F [Compound 28, (S)-2-(5-Cyano-3-fluoro-6-(5-fluoro-1H-pyrrolo[2,3-b]pyridin-3-yl)pyridin-2ylamino)-N-cyclopropyl-3,3-dimethylbutane-1-sulfonamide] | < 0.3 µM | < 300 nM |  | 
COCCNS(=O)(=O)C[C@@H](Nc1nc(-c2c[nH]c3ncc(F)cc23)c(C#N)cc1F)C(C)(C)C [Compound 29, (S)-2-((5-cyano-3-fluoro-6-(5-fluoro-1H-pyrrolo[2,3-b]pyridin-3-yl)pyridin-2-yl)amino)-N-(2-methoxyethyl)-3,3-dimethylbutane-1-sulfonamide] | 0.3 to 3.3 µM | < 300 nM |  | 
CC(C)(C)[C@@H](CS(N)(=O)=O)Nc1nc(-c2c[nH]c3ncc(F)cc23)c(C#N)cc1F [Compound 30, (S)-2-((5-cyano-3-fluoro-6-(5-fluoro-1H-pyrrolo[2,3-b]pyridin-3-yl)pyridin-2-yl)amino)-3,3-dimethylbutane-1-sulfonamide] | < 0.3 µM | < 300 nM |  | 
CCCNS(=O)(=O)C[C@@H](Nc1nc(-c2c[nH]c3ncc(F)cc23)c(C#N)cc1F)C(C)(C)C [Compound 31, (S)-2-((5-cyano-3-fluoro-6-(5-fluoro-1H-pyrrolo[2,3-b]pyridin-3-yl)pyridin-2-yl)amino)-3,3-dimethyl-N-propylbutane-1-sulfonamide] | < 0.3 µM | < 300 nM |  | 
CC(C)(C)C(C[S@+]([O-])CC(=O)O)Nc1nc(-c2c[nH]c3ncc(F)cc23)ncc1F (stereo partly drawn) [Compound 64, 2-((S)-2-(5-fluoro-2-(5-fluoro-1H-pyrrolo[2,3-b]pyridin-3-yl)pyrimidin-4-ylamino)-3,3-dimethylbutylsulfinyl)ethanoic acid] | > 3.3 µM | < 300 nM |  | 
CC(O)C[C@@H](Nc1nc(-c2c[nH]c3ncc(F)cc23)ncc1F)C(C)(C)C (stereo partly drawn) [Compound 72, (4R)-4-((5-Fluoro-2-(5-fluoro-1H-pyrrolo[2,3-b]pyridin-3-yl)pyrimidin-4-yl)amino)-5,5-dimethylhexan-2-ol] | > 3.3 µM |  |  | 
Clc1cnc2[nH]cc(-c3cccc(NC4CCCCC4)n3)c2c1 [Compound C1, reference compound] |  |  |  | IC50 [2, 6]: > 3.3 µM; IC50 [2, 7]: > 20 µM
Clc1cnc2[nH]cc(-c3cccc(NCC4CCCNC4)n3)c2c1 (stereo not shown) [Compound C2, reference compound] |  |  |  | IC50 [2, 6]: > 3.3 µM; IC50 [2, 7]: > 20 µM
